“And” between values parts separate entries of the source, which are not always exact repeats. Equal values may be shown once.
Legend:
[1] = Pesticide reduction at various pesticide/chlorine ratios; settings: Pesticide/Chlorine Ratio 1:4
From the text: In certain aspects, the concentration of the pesticide (e.g., methomyl) that was exposed to the fabric was proportional to the percent reduction of the pesticide. Without being bound by a particular theory, it is believed that the pesticide/halamine ratio is more critical to reduction than the actual contact time of the pesticide with the fabric. A pesticide to halamine ratio of about 10:1 to about 1:10 is suitable for the present methods, preferably, a ratio of about 5:1 to about 1:5 is used and, more preferably, a ratio of about […] is used.

[2] = test system: male rats; settings: cited from earlier work
[3] = cited from earlier work
[4] = Detoxification of pesticides on cotton/polyester fabrics treated with DMDMH and chlorine bleach, percentage reduction by GC; settings: 6% DMDMH, 5 min contact
Description: Polyester/cotton fabrics were washed in a domestic washing machine at 50° C. prior to the actual treatment of the functional compounds.
The grafting of hydantoin ring onto the cotton/polyester fabrics was carried out using a wet finishing process. The weighed fabrics were submerged into an aqueous 6% (w/w) DMDMH solution for 5 min. and then wringed through a padder to secure a wet pickup of 70-100% through a 2 dip-2 nip cycle. These wet fabrics were then oven-dried at 85° C. for 5 min. and cured at 150° C. for 5 min. Following this, the fabrics were washed in water at 50° C. for 30 min. to remove any excess chemicals on the surface of the fabrics.
After the wet finishing process, the treated fabrics were bleached with solutions containing 0.01% and 0.1% (w/v) active chlorine content. The treated fabrics were submerged into aqueous bleach solution at one of the specified concentrations at 25° C. for 15 min. Then, the fabrics were air dried and stored at standard condition (25° C., 65% relative humidity). The chemically finished fabrics were then cut into 3×3 inches square swatches for exposure to pesticides in the subsequent testing.
Methomyl and aldicarb were dissolved in methanol at three different concentrations: 250, 500 and 1000 ppm. One mL of one of these pesticide solutions was directly loaded onto a fabric swatch. A contact time of 5 min. was allowed before the exposed fabric was extracted in organic solvent for detoxification assessment and degradation analysis. Fabrics that were not treated with DMDMH and bleach were also used as control samples.
The extraction of the exposed swatches was done by soaking a swatch into an initial volume of 50 mL ethyl acetate for 15 min. with vigorous agitation. The extraction was repeated with another 50 mL of ethyl acetate; the combined 100 mL of the extracted solvent was reduced to 2 mL in volume by rotor-evaporation under partial vacuum at 40° C. To this 2-mL sample, 1 μL of 2-ethyl-5-methyl pyridine was added as an internal standard for quantitation during the chromatographic analysis. After which, 1 μL of the extracted sample was injected into a gas chromatograph.
Gas chromatography was performed on a Hewlett Packard 5890 series II GC, equipped with a nitrogen-phosphorus detector (NPD), using a 15 m×0.25 mm I.D. DB-1 column, 0.25 μm film (J&W Co.). The temperature program was initially set at 100° C. for 3 min., raised at a rate of 7° C./min. to 250° C. and held for 5 min. The injector and detector were set at 250° C. and 280° C. respectively. Helium was used as the carrier gas at a flow rate of 0.84 mL/min; hydrogen flow rate was 2.98 mL/min; nitrogen flow rate was 29.16 mL/min. A split injection was used at a split ratio of 25:1. The responses of the resulting peak areas and relative peak areas were integrated and recorded using a HP 3396 II integrator. For each sample, at least three or more repetitions at each condition were carried out.
Using the materials and methods sets forth above, three different concentrations of methomyl were detoxified by halamine structures on the fabrics. Relative peak area response factors (peak area response of pesticide divided by peak area response of internal standard) of the control fabrics were used to determine the original amount of pesticide on the fabrics at 0% reduction. […] After this difference was divided by the original amount, it was expressed as the percentage reduction of pesticide at those various concentrations.

[5] = chlorine/methomyl ratio of 10 to 1; cited from earlier work

Row | SMILES | Pesticide Reduction (%) [1] | Toxicity, mg/kg (LD50, male rats) [2] | Vapor Pressure mm Hg (25-30° C.) [3] | percentage reduction of pesticide ([4]; 250 ppm pesticide, 0.01% active chlorine treatment) | percentage reduction of pesticide ([4]; 250 ppm pesticide, 0.1% active chlorine treatment) | percentage reduction of pesticide ([4]; 500 ppm pesticide, 0.1% active chlorine treatment) | percentage reduction of pesticide ([4]; 1000 ppm pesticide, 0.01% active chlorine treatment) | percentage reduction of pesticide ([4]; 1000 ppm pesticide, 0.1% active chlorine treatment) | disappearance in aqueous solution [5]
1 | CNC(=O)Oc1cccc2ccccc12 [Carbaryl] | 8.02% | – | – | – | – | – | – | – | –
2 | CNC(=O)Oc1cccc2c1OC(C)(C)C2 [Carbofuran] | 13.82% | – | – | – | – | – | – | – | –
3 | CNC(=O)ON=C(C)SC [Methomyl, S-methyl N-(methyl carbamoyloxy) thioacetimidatel] | 79.52% | 21 mg/kg | 5 × 10^−5 mm Hg | 9.35% and 9.4% | 19.9% | 18.6% | 4.43% and 4.4% | 11.63% and 11.6% | disappear rapidly
